In assay [1] the target is T1, dopamine D-2 receptors (Rattus norvegicus, UniProt P61169).
T1 construct: striatal tissue is dissected and weighed; from tissue; host or cells: corpus striatum membranes of male Wistar rats
Kind of assay: inhibition of 3H-spiperone binding to dopamine D-2 receptors in rat corpus striatum in vitro. The note with it: 3H-spiperone 0.5 nM, rat corpus striatum membranes, in vitro; read-out: Binding IC50, 3H Spi. The method in brief:
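Rat striatal membranes from male Wistar rats in 50 mM K-phosphate pH 7.4 incubated 10 min at 37 °C with 0.5 nM ³H-spiperone and five drug concentrations over 3 decades. Bound radioactivity collected by filtration and counted by scintillation; nonspecific binding defined with 10 μM 6,7-ADTN.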

The target of assay [2] is T2, 5-HT2 (Rattus norvegicus, UniProt P14842).
T2 construct: Four rats, male Wistar (Mol:Wist) SPF rats weighing 170-240 g; from tissue; host or cells: living male Wistar (Mol:Wist) SPF rats (in vivo, endogenous receptor)
As to the kind of experiment: quipazine inhibition (quipazine-induced head twitches in rats). Format: in vivo. The method, then:
Quipazine is a 5-HT2 agonist, which induces head twitches in rats. The test is a test for 5-HT2 -antagonistic effect testing the ability to inhibit head twitches. The method and test results for some reference substances are published by Arnt et al. (Drug Development Research, 16, 59-70, 1989).
Test substance is injected s.c. 2 hrs before or p.o. 24 hrs before quipazine administration (6.8 mg/kg, s.c., dimaleate). Four rats, male Wistar (Mol:Wist) SPF rats weighing 170-240 g, are used at each dose level. A control group is included each test day. By repeated testing (2, 24 hrs) the control group is the same, however. After quipazine administration the rats are individually placed in the observation cages and head twitches are counted in an observation period of 30-40 min. after injection of quipazine.
Total number of head twitches in each group is calculated and the result for each dose is expressed as per cent of the response in the control group. ED50 values are calculated by log-probit analysis. The test must be repeated if the average number of head twitches is lower than 9 in the control group.

Assay [3] deals with T3, DA D-2 (Rattus norvegicus, UniProt P61169).
T3 construct: Male Wistar rats (Mol:Wist) weighing about 200 g at the time of operation are used; from tissue; host or cells: living male Wistar (Mol:Wist) rats with unilateral 6-OHDA lesions (in vivo, endogenous receptor)
As to the kind of experiment: antagonism of pergolide-induced circling behaviour in rats with unilateral 6-OHDA lesions. The class given is in vivo. The settings on record: sc. The method, then:
ANTAGONISM OF PERGOLIDE-INDUCED CIRCLING BEHAVIOUR IN RATS WITH UNILATERAL 6-OHDA LESIONS
Dopamine (DA) D-2 agonists induce contralateral circling behaviour in rats with 6-OHDA lesions. Pergolide-induced circling is antagonized by DA D-2 antagonists.
Male Wistar rats (Mol:Wist) weighing about 200 g at the time of operation are used. Unilateral lesions are made in pentobarbital anaesthetized rats by injection of 6-OHDA. HCl 9.7 μg/μl (equivalent to 8 μg free base) per 4 min. into the rostral tip of the substantia nigra. The saline solution contains ascorbic acid 0.2 mg/ml, is bubbled with N2 and is kept ice-cold. The experiments are done when stable contralateral circling responses to pergolide (0.05 μmol/kg, s.c.) are obtained. The circling response is measured in rotometer bowls. Only rats showing more than 400 complete turns in 2 hrs control session are used. Dose-response curves are obtained by alternating test and control sessions on a weekly basis. The antagonists are injected s.c. 2 hrs before the agonist. The effect of individual doses of test drugs is calculated as per cent of the mean effect of control sessions one week before and one week after the test session for each rat. ED50 values are calculated by log-probit analysis. Four to eight rats are used at each dosage.

Where [4] appears, read: po, 24 h, read-out: Quipazine inhibition ED50, 24h (po).
Where [5] appears, read: sc, 2 h, read-out: Quipazine inhibition ED50, 2h (sc).
Where [6] appears, read: read-out: Pergolide rot. inhibition ED50, 2h (sc), 6-OHDA lesions, s.c., 2 h before pergolide.

Where two headings read alike, the source gives them in different places.

T1 sequence (P61169 whole entry): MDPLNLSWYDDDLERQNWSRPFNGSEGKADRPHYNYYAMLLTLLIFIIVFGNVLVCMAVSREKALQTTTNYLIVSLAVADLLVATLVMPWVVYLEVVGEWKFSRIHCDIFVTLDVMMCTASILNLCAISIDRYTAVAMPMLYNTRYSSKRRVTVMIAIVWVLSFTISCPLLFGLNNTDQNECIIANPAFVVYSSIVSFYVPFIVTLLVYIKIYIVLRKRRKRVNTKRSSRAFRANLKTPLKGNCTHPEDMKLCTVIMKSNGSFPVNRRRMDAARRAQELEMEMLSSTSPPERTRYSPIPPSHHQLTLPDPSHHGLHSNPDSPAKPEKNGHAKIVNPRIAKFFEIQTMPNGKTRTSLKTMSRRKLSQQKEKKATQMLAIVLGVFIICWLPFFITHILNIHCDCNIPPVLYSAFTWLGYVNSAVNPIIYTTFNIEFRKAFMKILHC
T3 sequence (P61169 whole entry): as above
T2 sequence (P14842 whole entry): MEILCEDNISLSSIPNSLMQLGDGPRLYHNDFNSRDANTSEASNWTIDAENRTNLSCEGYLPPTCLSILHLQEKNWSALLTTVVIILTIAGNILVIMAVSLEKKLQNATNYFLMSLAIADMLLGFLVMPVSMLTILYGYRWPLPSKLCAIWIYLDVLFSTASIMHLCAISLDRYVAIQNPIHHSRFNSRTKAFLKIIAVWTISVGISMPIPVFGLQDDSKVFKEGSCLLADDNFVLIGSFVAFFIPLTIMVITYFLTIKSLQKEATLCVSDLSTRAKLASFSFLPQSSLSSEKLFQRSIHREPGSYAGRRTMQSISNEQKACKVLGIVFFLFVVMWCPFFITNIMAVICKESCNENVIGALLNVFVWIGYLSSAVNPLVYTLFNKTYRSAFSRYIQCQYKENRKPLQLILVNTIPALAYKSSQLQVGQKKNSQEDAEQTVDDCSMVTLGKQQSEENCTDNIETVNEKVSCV

As for `CC(C)N1CCN(CCN2CCC(c3cn(-c4ccc(F)cc4)c4cc(Cl)ccc34)CC2)C1=O` [Compound 4a, 6-chloro-1-(4-fluorophenyl)-3-[1-[2-[3-(2-propyl)-2-imidazolidinon-1-yl]ethyl]-4-piperidyl]-1H-indole], the IC50 in assay [1] stood at 130 nM. Moreover, the ED50 is 0.06 µmol/kg in assay [2] (setting [4]); 0.11 µmol/kg in assay [2] (setting [5]); over 17 µmol/kg in assay [3] (2 h, read-out: Pergolide rot. inhibition ED50, 2h (sc)).
On to `Cc1ccc2c(C3CCN(CCN4CCNC4=O)CC3)cn(-c3ccc(F)cc3)c2c1` [Compound 4g, 1-(4-fluorophenyl)-3-[1-[2-(2-imidazolidinon-1-yl)ethyl]-4-piperidyl]-6-methyl-1H-indole], for which the IC50 in assay [1] is 270 nM. The ED50 in assay [2] (setting [4]) was 0.04 µmol/kg; in assay [2] (setting [5]), 0.02 µmol/kg; in assay [3] (setting [6]) it was over 24 µmol/kg.
Turning to `Cc1ccc2c(C3CCN(CCN4CCN(C(C)C)C4=O)CC3)cn(-c3ccc(F)cc3)c2c1` [Compound 5a, 1-(4-fluorophenyl)-6-methyl-3-[1-[2-[3-(2-propyl)-2-imidazolidinon-1-yl]ethyl]-4-piperidyl]-1H-indole], the IC50 in assay [1] was 190 nM. In addition, the ED50 was 0.11 µmol/kg in assay [2] (setting [4]), 0.04 µmol/kg in assay [2] (setting [5]) and over 18 µmol/kg in assay [3] (setting [6]).
For the molecule `OCCN1CCN(c2cn(-c3ccc(F)cc3)c3ccc(C(F)(F)F)cc23)CC1` [Lu 21-152, 1-(4-fluorophenyl)-3-[4-(2-hydroxyethyl)-1-piperazinyl]-5-trifluoromethyl-1H-indole, reference compound], the IC50 in assay [1] was 2.6 nM. For the same molecule, the “Quipazine inhibition ED50, 2h (sc)” value in assay [2] (s.c., 2 h before quipazine) is 0.02 µmol/kg. Besides, in assay [3] (setting [6]), the ED50 was 0.02 µmol/kg.

For the origin of these results see US5216001A, “Indole derivatives” (H. Lunbeck A/S, priority 1990, dated 1993).
